This passage reports percent inhibition of cell viability results from patent US12383533B2 (Frost Biologic, Inc., priority 2014, dated 2025).

One experiment has as its system A2780 cells. Briefly: Cell Viability Assay (ATPlite 1step), A2780. It is filed as cell-based. As to conditions: Homo sapiens, 72 hours; for percent inhibition of cell viability at 4 µM: A2780, 4 uM compound, read-out: Cell Viability % inhibition A2780 (4 uM Cpd); for percent inhibition of cell viability at 20 µM: A2780, 20 uM compound, read-out: Cell Viability % inhibition A2780 (20 uM Cpd). As for the experimental part:
(§1) Cell Viability Assay Protocol
(§2) Cells were trypsinized, counted, and re-seeded into a 384-well tissue culture plate at 1000 cells per well in […] media. Cells were incubated at 37° C. in an atmosphere of 5% CO2 for 24 hours. Experimental compounds, initially dissolved in DMSO and diluted further in media were added to the wells and incubated for 72 hours. Cell viability was measured using the ATPlite 1step Luminescence Detection Assay system (Perkin Elmer) as described in the Assay kit instructions.
(§3) Cell Culture Lines and Media: (1) A2780 cells were cultured in RPMI media with 10% FBS and 1% antibiotics. Cells were typically split every 3-5 days at a 1:10 dilution; (2) PC3 cells were cultured in RPMI media with 10% FBS and 1% antibiotics. Cells were typically split every 3-5 days at a 1:4 dilution; (3) MCF-7 cells were grown in K-12F media with 10% FBS and 1% antibiotics. Cells were typically split every 3-5 days at a 1:10 dilution.

The next experiment relates to PC3 cells. Briefly: Cell Viability Assay (ATPlite 1step), PC3. The conditions noted are these: Homo sapiens, PC-3, 72 hours; for percent inhibition of cell viability at 4 µM: PC3, 4 uM compound, read-out: Cell Viability % inhibition PC3 (4 uM Cpd); for percent inhibition of cell viability at 20 µM: PC3, 20 uM compound, read-out: Cell Viability % inhibition PC3 (20 uM Cpd). The class given is cell-based. How it is done:
as §1, §2, §3

As for `O=C(Nc1ccc(-c2cccc(-c3ccccc3)c2)cn1)c1cncnc1` [Compound 40, N-[5-(biphenyl-3-yl)pyridin-2-yl]pyrimidine-5-carboxamide], the percent inhibition of cell viability at 4 µM with A2780 cells came out at 61%; in the experiment with PC3 cells it was 48.3%. The percent inhibition of cell viability at 20 µM in the experiment with A2780 cells is 72%; in the experiment on PC3 cells, 52.5%.

For `Cc1ncc(C(=O)Nc2ccc(-c3cccc(NC4CCNC4)c3)cn2)cn1` (stereo not shown) [Compound 55, 2-methyl-N-{5-[3-(pyrrolidin-3-ylamino)phenyl]pyridin-2-yl}pyrimidine-5-carboxamide], in the experiment on A2780 cells, the percent inhibition of cell viability at 4 µM was 80.3% and the percent inhibition of cell viability at 20 µM was 87.4%. Moreover, in the experiment on PC3 cells, the percent inhibition of cell viability at 4 µM amounted to 81.1% and the percent inhibition of cell viability at 20 µM worked out at 82.2%.

As for `Cc1ccc(C(=O)Nc2ccc(-c3cccc(OC4CC4)c3)cn2)cn1` [Compound 29, N-{5-[3-(cyclopropyloxy)phenyl]pyridin-2-yl}-6-methylpyridine-3-carboxamide], in the experiment with A2780 cells, the percent inhibition of cell viability at 4 µM turned out to be 74.4% and the percent inhibition of cell viability at 20 µM amounted to 83.1%. In the experiment with PC3 cells, the percent inhibition of cell viability at 4 µM is 60.5% and the percent inhibition of cell viability at 20 µM is 69.5%.

Consider `Cc1ncc(C(=O)Nc2ccc(-c3cc(O)cc(C4CC4)c3)cn2)cn1` [Compound 65, N-[5-(3-cyclopropyl-5-hydroxyphenyl)pyridin-2-yl]-2-methylpyrimidine-5-carboxamide], for which the percent inhibition of cell viability at 4 µM was determined as 85.9% in the experiment with A2780 cells and 80.5% in the experiment with PC3 cells. Moreover, the percent inhibition of cell viability at 20 µM with A2780 cells came to 89.8%; with PC3 cells it was 82.2%.

As to `Cc1ncc(C(=O)Nc2ccc(-c3cccc(C4COC4)c3)cn2)cn1` [Compound 42, 2-methyl-N-{5-[3-(oxetan-3-yl)phenyl]pyridin-2-yl}pyrimidine-5-carboxamide], in the experiment with A2780 cells, the percent inhibition of cell viability at 4 µM was determined as 85% and the percent inhibition of cell viability at 20 µM turned out to be 85.2%. For the same compound, in the experiment on PC3 cells, the percent inhibition of cell viability at 4 µM is 80.3% and the percent inhibition of cell viability at 20 µM worked out at 84.5%.

Take `CN1CCN(c2cccc(-c3ccc(NC(=O)c4cncnc4)nc3)c2)CC1` [Compound 34, N-{5-[3-(4-methylpiperazin-1-yl)phenyl]pyridin-2-yl}pyrimidine-5-carboxamide]: in the experiment on A2780 cells, the percent inhibition of cell viability at 4 µM amounted to 51.6% and the percent inhibition of cell viability at 20 µM turned out to be 49.4%. In addition, in the experiment with PC3 cells, the percent inhibition of cell viability at 4 µM was found to be 19.8% and the percent inhibition of cell viability at 20 µM amounted to 30.3%.

With `COc1ncc(C(=O)Nc2ccc(-c3cccc(OC4CC4)c3)cn2)cn1` [Compound 57, N-{5-[3-(cyclopropyloxy)phenyl]pyridin-2-yl}-2-methoxypyrimidine-5-carboxamide], in the experiment on A2780 cells, the percent inhibition of cell viability at 4 µM turned out to be 88.3% and the percent inhibition of cell viability at 20 µM was 89.8%. Moreover, in the experiment with PC3 cells, the percent inhibition of cell viability at 4 µM came out at 85.1% and the percent inhibition of cell viability at 20 µM came to 89%.

Regarding `COc1ncc(C(=O)Nc2ccc(-c3cccc(C4CC4)c3)cn2)cn1` [Compound 59, N-[5-(3-cyclopropylphenyl)pyridin-2-yl]-2-methoxypyrimidine-5-carboxamide], in the experiment on A2780 cells, the percent inhibition of cell viability at 4 µM is 87.8% and the percent inhibition of cell viability at 20 µM was 90.4%. For the same compound, in the experiment on PC3 cells, the percent inhibition of cell viability at 4 µM amounted to 82.6% and the percent inhibition of cell viability at 20 µM stood at 88.5%.

`O=C(Nc1ccc(-c2ccc(Cl)cc2)cn1)c1cncnc1` [Compound 2, N-[5-(4-chlorophenyl)pyridin-2-yl]pyrimidine-5-carboxamide]: in the experiment with A2780 cells, the percent inhibition of cell viability at 4 µM worked out at 19.5% and the percent inhibition of cell viability at 20 µM is 65.2%. For the same compound, in the experiment with PC3 cells, the percent inhibition of cell viability at 4 µM is 4.9% and the percent inhibition of cell viability at 20 µM amounted to 17.4%.

For the compound `O=C(Nc1ccc(-c2cccc(C3COC3)c2)cn1)c1cccnc1` [Compound 43, N-{5-[3-(oxetan-3-yl)phenyl]pyridin-2-yl}pyridine-3-carboxamide], in the experiment with A2780 cells, the percent inhibition of cell viability at 4 µM worked out at 82.6% and the percent inhibition of cell viability at 20 µM stood at 86.7%. Also, in the experiment with PC3 cells, the percent inhibition of cell viability at 4 µM came out at 75.1% and the percent inhibition of cell viability at 20 µM is 84.5%.

For the compound `NCCNc1ncc(C(=O)Nc2ccc(-c3cccc(OC4CC4)c3)cn2)cn1` [Compound 58, 2-[(2-aminoethyl)amino]-N-[5-(3-cyclopropyloxyphenyl)pyridin-2-yl]pyrimidine-5-carboxamide], in the experiment with A2780 cells, the percent inhibition of cell viability at 4 µM is 86.6% and the percent inhibition of cell viability at 20 µM worked out at 91.1%. For the same compound, in the experiment with PC3 cells, the percent inhibition of cell viability at 4 µM came to 77.7% and the percent inhibition of cell viability at 20 µM stood at 93.6%.

On to `NCCNc1ncc(C(=O)Nc2ccc(-c3cccc(C4CC4)c3)cn2)cn1` [Compound 56, 2-[(2-aminoethyl)amino]-N-[5-(3-cyclopropylphenyl)pyridin-2-yl]pyrimidine-5-carboxamide], for which, in the experiment with A2780 cells, the percent inhibition of cell viability at 4 µM came to 88% and the percent inhibition of cell viability at 20 µM was found to be 97.6%. For the same compound, in the experiment with PC3 cells, the percent inhibition of cell viability at 4 µM was determined as 81.4% and the percent inhibition of cell viability at 20 µM is 97.4%.

As to `O=C(Nc1ccc(-c2cccc(C3CC3)c2)cn1)c1cccnc1` [Compound 24, N-[5-(3-cyclopropylphenyl)pyridin-2-yl]pyridine-3-carboxamide], in the experiment on A2780 cells, the percent inhibition of cell viability at 4 µM was 73.4% and the percent inhibition of cell viability at 20 µM came to 72.2%. For the same compound, in the experiment on PC3 cells, the percent inhibition of cell viability at 4 µM is 53.1% and the percent inhibition of cell viability at 20 µM came out at 67.5%.

`COc1ccc(Cl)cc1-c1ccc(NC(=O)c2cncnc2)nc1` [Compound 21, N-[5-(5-chloro-2-methoxyphenyl)pyridin-2-yl]pyrimidine-5-carboxamide]: in the experiment on A2780 cells, the percent inhibition of cell viability at 4 µM worked out at 70.4% and the percent inhibition of cell viability at 20 µM amounted to 62.4%. Further, in the experiment on PC3 cells, the percent inhibition of cell viability at 4 µM came out at 22.8% and the percent inhibition of cell viability at 20 µM was found to be 15.3%.

`Cc1ccc(C(=O)Nc2ccc(-c3cccc(NC4CC4)c3)cn2)cn1` [Compound 33, N-{5-[3-(cyclopropylamino)phenyl]pyridin-2-yl}-6-methylpyridine-3-carboxamide]: the percent inhibition of cell viability at 4 µM worked out at 69.5% with A2780 cells and 56.1% with PC3 cells. The percent inhibition of cell viability at 20 µM stood at 74.8% in the experiment with A2780 cells and 54.9% in the experiment on PC3 cells.

As to `O=C(Nc1ccc(-c2cccc(C3CC3)c2)cn1)c1cnccc1F` [Compound 39, N-[5-(3-cyclopropylphenyl)pyridin-2-yl]-4-fluoropyridine-3-carbox-amide], the percent inhibition of cell viability at 4 µM turned out to be 55.6% in the experiment on A2780 cells and 19.2% in the experiment with PC3 cells. Further, the percent inhibition of cell viability at 20 µM was 58.7% in the experiment with A2780 cells and 28.7% in the experiment with PC3 cells.

On to `O=C(Nc1ccc(-c2cccc(C3CC3)c2)cn1)c1cnc(O)nc1` [Compound 60, N-[5-(3-cyclopropylphenyl)pyridin-2-yl]-2-hydroxypyrimidine-5-carboxamide], for which the percent inhibition of cell viability at 4 µM with A2780 cells is 77.1%; in the experiment on PC3 cells, 48.8%. The figures for the percent inhibition of cell viability at 20 µM in the experiment with A2780 cells and in the experiment on PC3 cells were 83.7% and 80.6%, respectively.

Consider `O=C(Nc1ccc(-c2ccsc2)cn1)c1cncnc1` [Compound 7, N-[5-(thiophen-3-yl)pyridin-2-yl]pyrimidine-5-carboxamide], for which, in the experiment with A2780 cells, the percent inhibition of cell viability at 4 µM amounted to 81.3% and the percent inhibition of cell viability at 20 µM was determined as 90.9%. Besides, in the experiment with PC3 cells, the percent inhibition of cell viability at 4 µM worked out at 44.1% and the percent inhibition of cell viability at 20 µM was 41.8%.

On to `CC(C)(C)c1cccc(-c2ccc(NC(=O)c3cncnc3)nc2)c1` [Compound 46, N-[5-(3-tert-butylphenyl)pyridin-2-yl]pyrimidine-5-carboxamide], for which the percent inhibition of cell viability at 4 µM with A2780 cells was 71.1%; in the experiment on PC3 cells, 68.5%. The percent inhibition of cell viability at 20 µM in the experiment on A2780 cells turned out to be 71.8%; in the experiment with PC3 cells, 67.6%.

For the compound `O=C(Nc1ccc(-c2cccc(OC3CC3)c2)cn1)c1cncnc1` [Compound 26, N-{5-[3-(cyclopropyloxy)phenyl]pyridin-2-yl}pyrimidine-5-carboxamide], the percent inhibition of cell viability at 4 µM with A2780 cells was 76%; in the experiment on PC3 cells, 59.3%. Further, the percent inhibition of cell viability at 20 µM in the experiment on A2780 cells stood at 79.9%; in the experiment with PC3 cells it was 67.5%.

As to `O=C(Nc1ccc(-c2cccc(OC3CC3)c2)cn1)c1cccnc1` [Compound 28, N-{5-[3-(cyclopropyloxy)phenyl]pyridin-2-yl}pyridine-3-carboxamide], in the experiment on A2780 cells, the percent inhibition of cell viability at 4 µM was determined as 77% and the percent inhibition of cell viability at 20 µM worked out at 74.2%. For the same compound, in the experiment on PC3 cells, the percent inhibition of cell viability at 4 µM was determined as 58.9% and the percent inhibition of cell viability at 20 µM turned out to be 65.6%.

Take `Cc1ncc(C(=O)Nc2ccc(-c3cccc(OCCN4CCN(C)CC4)c3)cn2)cn1` [Compound 38, N-{-5-[3-(2-(4-methylpiperazin-1-yl)ethoxy)phenyl]pyridin-2-yl}-2-methylpyrimidine-5-carboxamide]: in the experiment on A2780 cells, the percent inhibition of cell viability at 4 µM is 51.7% and the percent inhibition of cell viability at 20 µM amounted to 68.7%. For the same compound, in the experiment on PC3 cells, the percent inhibition of cell viability at 4 µM came out at 39.9% and the percent inhibition of cell viability at 20 µM is 61.2%.
